Assay results published in patent US10689595B2 (THE REGENTS OF THE UNIVERSITY OF CALIFORNIA, priority 2016, dated 2020).

Columns and labels:
[1] = molecular target: T1, mTRPV1 (Mus musculus, UniProt Q704Y3); experiment: calcium influx assay in HEK293 cells heterologously expressing mTRPV1; assay type: cell-based; settings: for concentration that produced significant Ca2+ influx: HEK293 cells expressing mTRPV1, fluo-4, FIG. 4; for TRPV1 channel activation: at low doses
T1 construct: GFP; expressed in transfected cells; host or cells: HEK-293 (transient transfection; plasmid a gift from Jie Zheng, UC Davis)
T1 sequence (Q704Y3 whole entry): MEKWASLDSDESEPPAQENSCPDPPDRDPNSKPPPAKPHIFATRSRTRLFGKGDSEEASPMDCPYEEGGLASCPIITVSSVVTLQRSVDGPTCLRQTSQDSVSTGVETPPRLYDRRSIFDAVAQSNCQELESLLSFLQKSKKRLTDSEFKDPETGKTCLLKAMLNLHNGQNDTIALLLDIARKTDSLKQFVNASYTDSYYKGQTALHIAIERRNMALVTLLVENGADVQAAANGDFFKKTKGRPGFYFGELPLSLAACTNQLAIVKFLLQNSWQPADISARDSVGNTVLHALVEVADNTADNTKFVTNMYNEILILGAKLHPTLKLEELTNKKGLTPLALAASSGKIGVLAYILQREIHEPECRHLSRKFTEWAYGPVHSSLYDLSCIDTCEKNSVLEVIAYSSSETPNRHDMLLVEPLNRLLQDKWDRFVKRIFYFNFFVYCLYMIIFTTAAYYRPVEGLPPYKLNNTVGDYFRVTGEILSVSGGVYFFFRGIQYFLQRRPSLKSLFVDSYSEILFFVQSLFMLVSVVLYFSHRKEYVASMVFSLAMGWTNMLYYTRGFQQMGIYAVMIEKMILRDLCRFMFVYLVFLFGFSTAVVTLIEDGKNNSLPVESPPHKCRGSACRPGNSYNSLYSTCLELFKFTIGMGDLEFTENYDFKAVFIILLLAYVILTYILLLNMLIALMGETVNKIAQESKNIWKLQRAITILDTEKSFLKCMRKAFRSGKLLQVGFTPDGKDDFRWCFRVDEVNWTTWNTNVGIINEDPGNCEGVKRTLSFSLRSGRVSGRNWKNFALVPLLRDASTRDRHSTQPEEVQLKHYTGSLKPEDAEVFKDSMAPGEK
Procedure: The mTRPV1 plasmid that contains a GFP tag was a generous gift from Professor Jie Zheng at University of California, Davis. The HEK-293 cells were cultured in a poly-D-lysine coated T75 dish at an initial density of 4×10^5 cells/dish and maintained in culture medium (DMEM+10% FBS+100 units/ml peniclillin, 0.1 mg/ml streptomycine) in an incubator at 37° C. with 5% CO2 and 95% humidity. At 50% confluence, the HEK-293 cells were transfected with 10 μg of mTRPV1 plasmid using Lipofectamine 2000 (Invitrogen Corporation, Carlsbad, Calif., USA) in antibiotic—as well as serum-free culture medium. After 6 hour incubation, the serum-free medium was replaced with normal culture medium and the cells were cultured for another 48 hours. The transfection efficiency was determined by examined the GFP expression as well as the Ca^2+ response after exposure to capsaicin.
The HEK-293 cells transiently transfected mTRPV1 were planted onto poly-D-lysine (Sigma-Aldrich, St. Louis, Mo., USA) coated black-well, clear-bottom, 96-well plates (Corning, Coring, N.Y., USA) at an initial density of 40,000/well. The cells were then cultured in DMEM medium for 18-24 hours as described previously (Ref. 38). Briefly, the growth medium was removed and replaced with dye loading buffer (100 μl/well) containing 4 μM fluo-4 and 0.5 mg/ml BSA in Locke's buffer (in mM: 8.6 HEPES, 5.6 KCl, 154 NaCl, 5.6 Glucose, 1.0 MgCl2, 2.3 CaCl2), 0.0001 glycine, pH 7.4). After 1 hour incubation in dye loading buffer, cells were washed four times in fresh Locke's buffer and transferred to the plate chamber of FLIPR^TETRA (Molecular Devices, Sunnyvale, Calif., USA). The final volume of Locke's buffer in each well was 150 μl. The cells were excited at 488 nm and Ca^2+ bound fluo-4 emission at 535 nm was recorded. Fluorescence readings were taken every 1 second for 120 s to establish the baseline. Different concentrations (4×) of compounds were added to the cells from a compound plate in a volume of 50 μl at a rate of 30 μl/s using a programmable robotic system. The fluorescence signals were recorded for an additional 380 seconds. All the experiments were performed at room temperature. The Ca^2+ data were represented as Fluo-4 fluorescence units (F/Fo). For quantifying the Ca^2+ response, the area under the curve (AUC) was used. Graphing and statistical analyses were performed using GraphPad Prism software (GraphPad Software Inc., San Diego, Calif.). Statistical significance was determined by an ANOVA and, where appropriate, a Dunnett's multiple comparison test and p values below 0.05 was considered statistically significant.
The influence of 20-HETE, 20-HEPE, and 22-HDoHe on mTRPV1 was measured in HEK293 cells heterologously expressed mTRPV1 using calcium influx assay. […] The discrepancy between previous study and current study is likely due to the fact that the mTRPV1 was used in the current study, while the hTRPV1 was used in the previous study.

[2] = molecular target: T2, ovine COX-1 (Ovis aries, UniProt P05979); experiment: COX Fluorescent Inhibitor Screening Assay, COX-1; assay type: biochemical; settings: read-out: % inhibition at 100 μM COX-1, triplicate
T2 construct: purchased Cayman Chemical 700100
T2 sequence (P05979 25-600): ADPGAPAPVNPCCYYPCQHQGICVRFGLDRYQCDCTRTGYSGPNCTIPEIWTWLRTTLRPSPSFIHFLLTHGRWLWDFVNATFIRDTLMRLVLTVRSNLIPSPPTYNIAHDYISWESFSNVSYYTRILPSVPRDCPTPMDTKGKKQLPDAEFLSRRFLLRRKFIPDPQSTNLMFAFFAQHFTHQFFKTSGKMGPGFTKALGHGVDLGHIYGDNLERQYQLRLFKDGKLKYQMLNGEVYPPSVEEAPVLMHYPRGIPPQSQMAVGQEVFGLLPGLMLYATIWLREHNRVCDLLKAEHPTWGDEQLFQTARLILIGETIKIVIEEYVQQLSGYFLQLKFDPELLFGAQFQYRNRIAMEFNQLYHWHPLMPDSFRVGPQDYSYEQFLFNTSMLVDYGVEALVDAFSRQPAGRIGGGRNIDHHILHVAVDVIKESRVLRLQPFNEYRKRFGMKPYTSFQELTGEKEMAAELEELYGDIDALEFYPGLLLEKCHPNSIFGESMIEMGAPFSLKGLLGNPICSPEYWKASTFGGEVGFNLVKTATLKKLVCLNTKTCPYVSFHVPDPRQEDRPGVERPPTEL
Procedure: (§1) Briefly, to a series of supplied reaction buffer solutions (150 μl, 100 mM Tris-HCl, pH 8.0) with either COX-1 or COX-2 (10 μl) enzyme in the presence of Heme (10 μl) and fluorometric substrate (10 μl) were added 10 μl of 100 μM concentration of the test compound solutions. The reactions were initiated by adding 10 μl of ARA solution and then incubated for two minutes at room temperature. Percent inhibition was calculated by comparison from the 100% initial activity sample value (no inhibitor).

[3] = molecular target: T3, human COX-2 (Homo sapiens, UniProt P35354); experiment: COX Fluorescent Inhibitor Screening Assay, COX-2; assay type: biochemical; settings: for inhibition at 100 µM: read-out: % inhibition at 100 μM COX-2, triplicate; for COX-2 activity changes: up to 100 μM concentrations
T3 construct: purchased Cayman Chemical 700100
T3 sequence (P35354 18-604): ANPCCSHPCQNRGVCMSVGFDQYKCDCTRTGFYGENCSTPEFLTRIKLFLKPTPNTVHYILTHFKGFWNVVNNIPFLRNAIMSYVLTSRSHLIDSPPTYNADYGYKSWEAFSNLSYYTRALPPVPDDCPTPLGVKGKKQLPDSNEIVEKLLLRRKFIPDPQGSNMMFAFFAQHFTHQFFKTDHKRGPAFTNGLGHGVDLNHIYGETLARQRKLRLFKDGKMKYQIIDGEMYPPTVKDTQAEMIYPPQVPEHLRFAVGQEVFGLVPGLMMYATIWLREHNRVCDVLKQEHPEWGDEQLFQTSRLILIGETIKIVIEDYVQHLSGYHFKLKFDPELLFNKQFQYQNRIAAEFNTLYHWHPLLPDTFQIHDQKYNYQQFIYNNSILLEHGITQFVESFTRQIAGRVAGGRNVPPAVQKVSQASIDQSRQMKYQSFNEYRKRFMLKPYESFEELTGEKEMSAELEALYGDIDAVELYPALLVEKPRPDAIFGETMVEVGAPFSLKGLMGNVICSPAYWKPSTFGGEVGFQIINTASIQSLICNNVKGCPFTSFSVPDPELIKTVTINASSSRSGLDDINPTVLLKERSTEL
Procedure: as §1

[4] = test system: VEGF-induced angiogenesis; experiment: Matrigel plug angiogenesis assay; assay type: in vivo; settings: co-addition in Matrigel with 100 ng VEGF, C57BL/6 mice
Procedure: FIG. 7A is a simplified scheme of the animal experiment: Matrigel containing VEGF (angiogenesis inducer) and 22-HDoHE or vehicle were injected into C57BL/6 mice, after 4-7 days of treatment, the Matrigel plugs were dissected and subjected to angiogenesis analysis.
Angiogenesis, the process of formation of new blood vessels from pre-existing vessels, has been established to be critical for multiple human diseases including cancer. Vascular endothelial growth factor (VEGF) is the most important angiogenesis inducer.

[5] = test system: human umbilical vein endothelial cells (HUVECs); experiment: VEGF-induced endothelial cell migration (Boyden chamber); assay type: cell-based; settings: dose range of 1-3 μM, 10 ng/mL VEGF, 6 hours
Procedure: FIG. 8 is a series of photographs showing 22-HDoHE inhibition of VEGF-induced endothelial cell migration in HUVEC cells. The cell migration assay was conducted using a standard Boyden chamber assay with 10 ng/mL VEGF as chemoattractant, and the assay time was 6 hours.
It was tested whether 22-HDoHE has direct anti-angiogenic actions in primary endothelial cells, using a VEGF-induced endothelial cell migration in human umbilical vein endothelial cells (HUVECs).

[6] = test system: B16F10 melanoma; experiment: B16F10 melanoma primary tumor growth model; assay type: in vivo; settings: 0.5 mg/kg/day by mini-pumps, 2-wk treatment, C57BL/6 mice
Procedure: FIG. 9 is a photograph and a bar graph showing systematic treatment of 0.5 mg/kg/day 22-HDoHE inhibited ˜50% of B16F10 melanoma growth in C57BL/6 male mice. B16F10 melanoma cells (200,000 cells per mouse) were sub-Q injected into C57BL/6 mice to induce primary tumor growth of melanoma, then the mice were treated with 22-HDoHE using mini-pumps at a dose of 0.5 mg/kg/day. After 2-wk treatment, the mice were sacrificed to dissect the tumors for analysis.
Angiogenesis has been well established to play an essential role in cancer, through providing nutrients and oxygen to the tumors tissues to promote tumor progression. The effect of 22HDoHE on primary tumor growth in mice was studied using a highly aggressive B16F10 melanoma model in C57BL/6 mice.

[7] = test system: human dermal lymphatic endothelial cells (HMVEC-dLy); experiment: VEGF-C-induced tube formation; assay type: cell-based; settings: dose-dependent manner, FIG. 10
Procedure: The effect of 22-HDoHE on lymphangiogenesis was evaluated using a vascular endothelial growth factor-C (VEGF-C)-induced tube formation in human dermal lymphatic endothelial cells (HMVEC-dLy).

[8] = test system: HMVEC-dLy; experiment: complete medium-induced HMVEC-dLy migration, Boyden chamber assay; assay type: cell-based, human; settings: FIG. 11
[9] = molecular target: hTRPV1 (Homo sapiens, UniProt Q8NER1); settings: 10 μM, previous study (Ref 24); cited from earlier work
Chain of hTRPV1 (Q8NER1 whole entry): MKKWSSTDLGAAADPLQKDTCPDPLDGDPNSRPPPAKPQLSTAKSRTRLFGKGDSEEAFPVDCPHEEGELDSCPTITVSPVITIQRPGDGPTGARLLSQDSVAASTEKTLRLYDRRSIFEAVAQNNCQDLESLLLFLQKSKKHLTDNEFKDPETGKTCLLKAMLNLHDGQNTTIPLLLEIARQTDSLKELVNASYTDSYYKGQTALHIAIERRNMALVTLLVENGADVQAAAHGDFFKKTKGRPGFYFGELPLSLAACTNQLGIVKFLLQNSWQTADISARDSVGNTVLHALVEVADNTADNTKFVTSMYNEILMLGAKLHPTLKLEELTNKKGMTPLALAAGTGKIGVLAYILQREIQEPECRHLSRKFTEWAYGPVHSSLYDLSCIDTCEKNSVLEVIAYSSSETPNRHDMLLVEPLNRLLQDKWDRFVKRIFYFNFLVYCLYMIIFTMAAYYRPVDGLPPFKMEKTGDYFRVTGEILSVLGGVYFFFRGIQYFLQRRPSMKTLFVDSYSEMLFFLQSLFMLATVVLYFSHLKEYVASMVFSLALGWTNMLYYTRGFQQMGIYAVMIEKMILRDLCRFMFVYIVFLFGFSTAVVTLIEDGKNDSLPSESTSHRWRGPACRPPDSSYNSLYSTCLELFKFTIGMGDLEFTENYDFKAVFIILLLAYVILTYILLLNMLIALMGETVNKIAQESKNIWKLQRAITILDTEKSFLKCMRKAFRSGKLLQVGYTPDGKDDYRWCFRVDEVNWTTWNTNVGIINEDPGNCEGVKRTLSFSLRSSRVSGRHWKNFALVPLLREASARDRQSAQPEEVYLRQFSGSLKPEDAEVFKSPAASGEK

[10] = test system: naïve rats; experiment: von Frey mechanical allodynia assay in naïve rats; assay type: in vivo, Sprague-Dawley rats; settings: methyl esters, 1 μg intraplantar, FIG. 6A
Procedure: Male Sprague-Dawley rats weighing approximately 250-300 grams were obtained from Charles River Laboratories. On the day of the test, rats were brought to the testing apparatus and allowed to acclimate. The apparatus is a raised metal mesh platform with clear acrylic chambers to enclose rats but allow them to move freely. After 30 minutes the rats were tested with a von Frey aesthesiometer for their non-treated baseline withdrawal thresholds using a rigid tip on the plantar surface of the rat hind paw though the mesh floor. The scores are grams of force applied to the hind paw required to elicit a withdrawal. The pretreatment baseline score was considered the pain-free baseline (BL) and was assigned 100% for further response calculations.
For the pain assay, 20-HETE methyl ester, 20-HEPE methyl ester, or 22-HDoHE methyl ester, formulated in 10% EtOH in saline, were injected intraplantar in naïve rats. Withdrawal thresholds were measured at 15, 30, 60, 90, 120 and 150 minutes post injection. Reported scores are calculated as a percent of the pretreatment baseline score with an average of 6 rats (3 trials per rat) with SEM for the group.
The methyl esters compounds of 20-HETE, 20-HEPE and 22-HDoHE were tested for their ability to induce mechanical allodynia in vivo. For the assay, naïve rats were injected intraplantar with 1 μg of each ester and tested with an electronic von Frey aesthesiometer.

In the case of `O=C(O)CC/C=C\C/C=C\C/C=C\C/C=C\C/C=C\C/C=C\CCO` [22-HDoHE, (4Z,7Z,10Z,13Z,16Z,19Z)-22-Hydroxydocosa-4,7,10,13,16,19-hexaenoic Acid], the “concentration that produced significant Ca2+ influx” value [1] is reported as ~3 µM, the TRPV1 channel activation [1] is reported as “did not activate TRPV1 channels” and the inhibition at 100 µM [2] is reported as 38.1%. For the same molecule, the inhibition at 100 µM [3] was 1%, the COX-2 activity changes ([3]; FIG. 5) was “No COX-2 activity changes” and the “VEGF-induced angiogenesis in Matrigel plugs” value [4] was “almost abolished VEGF-induced angiogenesis”. For the same molecule, the “VEGF-induced HUVECs migration” value [5] was “significantly inhibited”, the “reduction of B16F10 tumor growth” value [6] was ~50% and the “VEGF-C-induced tube formation in HMVEC-dLy cells” value [7] was “significantly inhibited”. For the same molecule, the “complete medium-induced HMVEC-dLy migration” value [8] was “significantly inhibit”.
With `CC/C=C\C/C=C\C/C=C\C/C=C\C/C=C\CCCC(=O)O` [EPA, eicosapentaenoic acid, reference compound] the “COX inhibitory activity (% inhibition), COX-2” value ([3]; FIG. 5) was “Less than 0%”.
With `O=C(O)CCC/C=C\C/C=C\C/C=C\C/C=C\CCCCCO` [20-HETE, (5Z,8Z,11Z,14Z)-20-Hydroxyicosa-5,8,11,14-tetraenoic Acid] the mTRPV1 activation ([1]; at or below concentration of 10 uM) was “does not appear to be an mTRPV1 activator”, the “Ca2+ response” value ([1]; at the concentrations examined, FIG. 4) was “marginal Ca^2+ response” and the inhibition at 100 µM [2] was 27.5%. For the same molecule, the inhibition at 100 µM [3] was 0%, the COX-2 activity changes ([3]; FIG. 5) was “No COX-2 activity changes” and the hTRPV1 activation [9] was “activates hTRPV1”.
With `COC(=O)CC/C=C\C/C=C\C/C=C\C/C=C\C/C=C\C/C=C\CCO` [22-HDoHE] the “nociceptive (withdrawal) thresholds, von Frey” value (“nociceptive” below) [10] was “neither 20-HEPE nor 22-HDoHE induced a similar decrease in thresholds”.
With `COC(=O)CCC/C=C\C/C=C\C/C=C\C/C=C\CCCCCO` the “nociceptive” value [10] was “decreased nociceptive thresholds acutely”.
With `COC(=O)CCC/C=C\C/C=C\C/C=C\C/C=C\C/C=C\CCO` the “nociceptive” value [10] was “neither 20-HEPE nor 22-HDoHE induced a similar decrease in thresholds”.
For `O=C(O)CCC/C=C\C/C=C\C/C=C\C/C=C\C/C=C\CCO` [20-HEPE, (5Z,8Z,11Z,14Z,17Z)-20-Hydroxyicosa-5,8,11,14,17-pentaenoic Acid], the “concentration that produced significant Ca2+ influx” value [1] was 10 µM, the TRPV1 channel activation [1] was “did not activate TRPV1 channels” and the inhibition at 100 µM [2] was 37.1%. The inhibition at 100 µM [3] was 0% and the COX-2 activity changes ([3]; FIG. 5) was “No COX-2 activity changes”.
